{
  "source": "patent US20250122295A1",
  "about": "“METHOD OF TREATMENT OF PHILADELPHIA CHROMOSOME POSITIVE LEUKEMIA” (CSL LIMITED, priority 2014, published 2025)",
  "tested_on": "GM-CSF-induced STAT5 phosphorylation in KU812 cells",
  "conditions": "dasatinib alone 100 nM, GM-CSF 4 ng/ml for 10 minutes, FIG. 6",
  "procedure": "KU812 cells (a myeloid precursor cell line established from the peripheral blood of a patient in blast crisis of CML) were cultured with 100 nM dasatinib with or without Bion-1 (100 nM) and constitutively stimulated with GM-CSF (4 ng/ml) for 10 minutes.",
  "data": [
    {"compound": "Cc1nc(Nc2ncc(C(=O)Nc3c(C)cccc3Cl)s2)cc(N2CCN(CCO)CC2)n1", "note": "[dasatinib]", "values": [
      {"measurement": "inhibition of p-STAT5 phosphorylation in the presence of GM-CSF", "value": "does not inhibit"}
    ]}
  ]
}
